Reference: patent US10004701B2, “Methods and compositions for treating infection” (UNIVERSITY OF ROCHESTER, priority 2012, dated 2018)
Counter-ions that a name gives are not always drawn. Like-named read-outs stand apart in the source and are kept apart here.

Key:
Assay in all cases: AK assay 384-well format, Prestwick library screening
K. pneumoniae = format: cell-based, Klebsiella pneumoniae; details: 50 μM final drug concentration; for fold induction at 50 µM: Klebsiella pneumoniae, 3 h
[1] = test system: S. aureus strain USA300-0114; format: cell-based, Staphylococcus aureus; details: 50 μM final drug concentration; for fold induction at 50 µM: Staphylococcus aureus, USA300, 3 h
[2] = test system: A. baumannii strain 98-37-09; format: cell-based, Acinetobacter baumannii; details: 50 μM final drug concentration; for fold induction at 50 µM: Acinetobacter baumannii, 983709, 3 h
E. cloacae = format: cell-based, Enterobacter cloacae; details: 50 μM final drug concentration; for fold induction at 50 µM: Enterobacter cloacae, 3 h
P. aeruginosa = format: cell-based, Pseudomonas aeruginosa; details: 50 μM final drug concentration; for fold induction at 50 µM: Pseudomonas aeruginosa, 3 h
E. faecium = format: cell-based, Enterococcus faecium; details: 50 μM final drug concentration; for fold induction at 50 µM: Enterococcus faecium, 3 h
E. coli = format: cell-based, Escherichia coli; details: 50 μM final drug concentration; for fold induction at 50 µM: Escherichia coli, 3 h
[3] = planktonic, cutoff for positive 3-fold increase, read-out: AK-based Prestwick Library Screening Results, K. pneumoniae (fold increase in extracellular AK activity)
[4] = planktonic, cutoff for positive 3-fold increase, read-out: AK-based Prestwick Library Screening Results, S. aureus (fold increase in extracellular AK activity)
[5] = planktonic, cutoff for positive 3-fold increase, read-out: AK-based Prestwick Library Screening Results, A. baumannii (fold increase in extracellular AK activity)
[6] = planktonic, cutoff for positive 3-fold increase, read-out: AK-based Prestwick Library Screening Results, E. cloacae (fold increase in extracellular AK activity)
[7] = planktonic, cutoff for positive 3-fold increase, read-out: AK-based Prestwick Library Screening Results, P. aeruginosa (fold increase in extracellular AK activity)
[8] = planktonic, cutoff for positive 3-fold increase, read-out: AK-based Prestwick Library Screening Results, E. faecium (fold increase in extracellular AK activity)
[9] = planktonic, cutoff for positive 3-fold increase, read-out: AK-based Prestwick Library Screening Results, E. coli (fold increase in extracellular AK activity)

## O=C(/C=C/C=C/c1ccc2c(c1)OCO2)N1CCCCC1 [Piperine]
K. pneumoniae; [3]
  fold induction at 50 µM: 0.3
[1]; [4]
  fold induction at 50 µM: 0.2
[2]; [5]
  fold induction at 50 µM: 0.4
E. cloacae; [6]
  fold induction at 50 µM: 1.6
P. aeruginosa; [7]
  fold induction at 50 µM: 0.4
E. faecium; [8]
  fold induction at 50 µM: 0.3
E. coli; [9]
  fold induction at 50 µM: 0.4

## COc1cc(/C=C/C(=O)N2CCC=CC2=O)cc(OC)c1OC [Piperlongumine]
K. pneumoniae; planktonic, […]
  AK-based Prestwick Library Screening Results, K. pneumoniae (fold increase in extracellular AK activity): 1.0
[1]; planktonic, […]
  AK-based Prestwick Library Screening Results, S. aureus (fold increase in extracellular AK activity): 1.0
[2]; planktonic, […]
  AK-based Prestwick Library Screening Results, A. baumannii (fold increase in extracellular AK activity): 1.0
E. cloacae; planktonic, […]
  AK-based Prestwick Library Screening Results, E. cloacae (fold increase in extracellular AK activity): 1.6
P. aeruginosa; planktonic, […]
  AK-based Prestwick Library Screening Results, P. aeruginosa (fold increase in extracellular AK activity): 1.1
E. faecium; planktonic, […]
  AK-based Prestwick Library Screening Results, E. faecium (fold increase in extracellular AK activity): 1.0
E. coli; planktonic, […]
  AK-based Prestwick Library Screening Results, E. coli (fold increase in extracellular AK activity): 1.2

## NC(=O)CN1CCCC1=O [Piracetam]
K. pneumoniae; [3]
  fold induction at 50 µM: 1
[1]; [4]
  fold induction at 50 µM: 1
[2]; [5]
  fold induction at 50 µM: 0.9
E. cloacae; [6]
  fold induction at 50 µM: 1.4
P. aeruginosa; [7]
  fold induction at 50 µM: 1.1
E. faecium; [8]
  fold induction at 50 µM: 0.9
E. coli; [9]
  fold induction at 50 µM: 1.1

## Cc1nc2ccccn2c(=O)c1CCN1CCC(C(=O)c2ccc(F)cc2)CC1 [Pirenperone]
K. pneumoniae; [3]
  fold induction at 50 µM: 1
[1]; [4]
  fold induction at 50 µM: 1.1
[2]; [5]
  fold induction at 50 µM: 1.2
E. cloacae; [6]
  fold induction at 50 µM: 1.5
P. aeruginosa; [7]
  fold induction at 50 µM: 1.2
E. faecium; [8]
  fold induction at 50 µM: 1.1
E. coli; [9]
  fold induction at 50 µM: 1.1

## CN1CCN(CC(=O)N2c3ccccc3C(=O)Nc3cccnc32)CC1 [Pirenzepine dihydrochloride]
K. pneumoniae; 384-well format, cutoff for positive-scoring molecules 3-fold increase, read-out: AK-based Prestwick Library Screening Results, K. pneumoniae (increase in extracellular AK activity)
  fold induction at 50 µM: 1
[1]; 384-well format, cutoff for positive-scoring molecules 3-fold increase, read-out: AK-based Prestwick Library Screening Results, S. aureus (increase in extracellular AK activity)
  fold induction at 50 µM: 1
[2]; 384-well format, cutoff for positive-scoring molecules 3-fold increase, read-out: AK-based Prestwick Library Screening Results, A. baumannii (increase in extracellular AK activity)
  fold induction at 50 µM: 1.1
E. cloacae; 384-well format, cutoff for positive-scoring molecules 3-fold increase, read-out: AK-based Prestwick Library Screening Results, E. cloacae (increase in extracellular AK activity)
  fold induction at 50 µM: 1.4
P. aeruginosa; 384-well format, cutoff for positive-scoring molecules 3-fold increase, read-out: AK-based Prestwick Library Screening Results, P. aeruginosa (increase in extracellular AK activity)
  fold induction at 50 µM: 1
E. faecium; 384-well format, cutoff for positive-scoring molecules 3-fold increase, read-out: AK-based Prestwick Library Screening Results, E. faecium (increase in extracellular AK activity)
  fold induction at 50 µM: 1.1
E. coli; 384-well format, cutoff for positive-scoring molecules 3-fold increase, read-out: AK-based Prestwick Library Screening Results, E. coli (increase in extracellular AK activity)
  fold induction at 50 µM: 1.4

## NS(=O)(=O)c1cc(C(=O)O)cc(N2CCCC2)c1Oc1ccccc1 [Piretanide]
K. pneumoniae; cutoff for positive-scoring molecules 3-fold increase, read-out: AK-based Prestwick Library Screening Results, K. pneumoniae (fold increase in extracellular AK activity)
  fold induction at 50 µM: 0.5
[1]; cutoff for positive-scoring molecules 3-fold increase, read-out: AK-based Prestwick Library Screening Results, S. aureus (fold increase in extracellular AK activity)
  fold induction at 50 µM: 0.4
[2]; cutoff for positive-scoring molecules 3-fold increase, read-out: AK-based Prestwick Library Screening Results, A. baumannii (fold increase in extracellular AK activity)
  fold induction at 50 µM: 0.4
E. cloacae; cutoff for positive-scoring molecules 3-fold increase, read-out: AK-based Prestwick Library Screening Results, E. cloacae (fold increase in extracellular AK activity)
  fold induction at 50 µM: 0.4
P. aeruginosa; cutoff for positive-scoring molecules 3-fold increase, read-out: AK-based Prestwick Library Screening Results, P. aeruginosa (fold increase in extracellular AK activity)
  fold induction at 50 µM: 0.4
E. faecium; cutoff for positive-scoring molecules 3-fold increase, read-out: AK-based Prestwick Library Screening Results, E. faecium (fold increase in extracellular AK activity)
  fold induction at 50 µM: 0.8
E. coli; cutoff for positive-scoring molecules 3-fold increase, read-out: AK-based Prestwick Library Screening Results, E. coli (fold increase in extracellular AK activity)
  fold induction at 50 µM: 0.5

## c1cnc(N2CCN(Cc3ccc4c(c3)OCO4)CC2)nc1 [Piribedil hydrochloride]
K. pneumoniae; planktonic K. pneumoniae, positive cutoff 3-fold increase, read-out: AK-based Prestwick library screening result, K. pneumoniae (fold increase in extracellular AK activity)
  fold induction at 50 µM: 0.5
[1]; planktonic S. aureus, positive cutoff 3-fold increase, read-out: AK-based Prestwick library screening result, S. aureus (fold increase in extracellular AK activity)
  fold induction at 50 µM: 0.6
[2]; planktonic A. baumannii, positive cutoff 3-fold increase, read-out: AK-based Prestwick library screening result, A. baumannii (fold increase in extracellular AK activity)
  fold induction at 50 µM: 0.7
E. cloacae; planktonic E. cloacae, positive cutoff 3-fold increase, read-out: AK-based Prestwick library screening result, E. cloacae (fold increase in extracellular AK activity)
  fold induction at 50 µM: 1
P. aeruginosa; planktonic P. aeruginosa, positive cutoff 3-fold increase, read-out: AK-based Prestwick library screening result, P. aeruginosa (fold increase in extracellular AK activity)
  fold induction at 50 µM: 0.6
E. faecium; planktonic E. faecium, positive cutoff 3-fold increase, read-out: AK-based Prestwick library screening result, E. faecium (fold increase in extracellular AK activity)
  fold induction at 50 µM: 0.9
E. coli; planktonic E. coli, positive cutoff 3-fold increase, read-out: AK-based Prestwick library screening result, E. coli (fold increase in extracellular AK activity)
  fold induction at 50 µM: 0.6

## CCn1cc(C(=O)O)c(=O)c2cnc(N3CCCC3)nc21 [Piromidic acid]
K. pneumoniae; planktonic, cutoff for positive-scoring molecules 3-fold increase, read-out: AK-based Prestwick Library Screening Results, K. pneumoniae (fold increase in extracellular AK activity)
  fold induction at 50 µM: 0.6
[1]; planktonic, cutoff for positive-scoring molecules 3-fold increase, read-out: AK-based Prestwick Library Screening Results, S. aureus (fold increase in extracellular AK activity)
  fold induction at 50 µM: 0.7
[2]; planktonic, cutoff for positive-scoring molecules 3-fold increase, read-out: AK-based Prestwick Library Screening Results, A. baumannii (fold increase in extracellular AK activity)
  fold induction at 50 µM: 0.5
E. cloacae; planktonic, cutoff for positive-scoring molecules 3-fold increase, read-out: AK-based Prestwick Library Screening Results, E. cloacae (fold increase in extracellular AK activity)
  fold induction at 50 µM: 0.6
P. aeruginosa; planktonic, cutoff for positive-scoring molecules 3-fold increase, read-out: AK-based Prestwick Library Screening Results, P. aeruginosa (fold increase in extracellular AK activity)
  fold induction at 50 µM: 0.5
E. faecium; planktonic, cutoff for positive-scoring molecules 3-fold increase, read-out: AK-based Prestwick Library Screening Results, E. faecium (fold increase in extracellular AK activity)
  fold induction at 50 µM: 0.9
E. coli; planktonic, cutoff for positive-scoring molecules 3-fold increase, read-out: AK-based Prestwick Library Screening Results, E. coli (fold increase in extracellular AK activity)
  fold induction at 50 µM: 0.6
